Results reported in patent publication US20240368150A1 (Hoffmann-La Roche Inc., priority 2021, published 2024).
Read-outs that look alike come from different tables or passages of the source.

Legend:
hDGKalpha(1-735)-N-His = hDGKalpha(1-735)-N-His (Homo sapiens (Human), UniProt P23743); test: DGKalpha ADP Glo assay (in vitro DGK inhibition); type: biochemical; conditions: DLG 125 uM, ATP 25 μM, DGK α 4 nM, 1 hour reaction
Method in brief: (§1)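 His-tagged human DGKα (4 nM) and DGKζ (2 nM) phosphorylate DLG presented in DLG/PS/PC liposomes using ATP; reaction run 1 hour. ADP formed measured by ADP-Glo luminescence. Compounds tested as 11-point 1:3 dose response […], 2% DMSO final.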

primary human T-cells [1] = system: primary human T-cells
primary human T-cells [2] = test: Proliferation assay after 5 days (CellTiter-Glo, CD3 stimulation; PBS counter screen); type: cell-based; conditions: Homo sapiens, T-cell, 120 h, CD3 stimulation; for Emax: 5 days, normalized to reference compound A1 as stimulator control = 100%, DMSO neutral control, read-out: Emax proliferation (% activation); for EC50: primary human T-cells, CellTiter-Glo after 5 days, EC50 of fitted sigmoidal curve, read-out: Tcell Proliferation CD3 EC50
Method in brief: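 Cpds added to medium-only plates; 5 d culture. Readout CellTiter-Glo 2.0 (equal vol), RT 45 min equilibration, 15 min rocking RT, luminescence. ATP signal taken as cell number.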

MV-3 cells = test: T-cell - TCB - MV3 killing assay (MCSP-TCB, RFP object count by Incucyte); type: cell-based, human; conditions: Homo sapiens, MV-3, 120 h, 5 d; for Emax: normalized: MCSP-TCB only = neutral control, 20 μM reference compound A1 = 100%, read-out: MSCP TCB killing MV-3 cells 5 d Emax; for EC50: primary human T-cells + MCSP-TCB, MV-3 RFP cells, read-out: MSCP TCB killing MV-3 cells 5 d EC50
hDGKzeta(1-928)-N-His = hDGKzeta(1-928)-N-His (Homo sapiens (Human), UniProt Q13574); test: DGKzeta ADP Glo assay (in vitro DGK inhibition); type: biochemical; conditions: DLG 125 uM, ATP 50 μM, DGK ζ 2 nM, 1 hour reaction
hDGKzeta(1-928)-N-His, sequence (Q13574 whole entry): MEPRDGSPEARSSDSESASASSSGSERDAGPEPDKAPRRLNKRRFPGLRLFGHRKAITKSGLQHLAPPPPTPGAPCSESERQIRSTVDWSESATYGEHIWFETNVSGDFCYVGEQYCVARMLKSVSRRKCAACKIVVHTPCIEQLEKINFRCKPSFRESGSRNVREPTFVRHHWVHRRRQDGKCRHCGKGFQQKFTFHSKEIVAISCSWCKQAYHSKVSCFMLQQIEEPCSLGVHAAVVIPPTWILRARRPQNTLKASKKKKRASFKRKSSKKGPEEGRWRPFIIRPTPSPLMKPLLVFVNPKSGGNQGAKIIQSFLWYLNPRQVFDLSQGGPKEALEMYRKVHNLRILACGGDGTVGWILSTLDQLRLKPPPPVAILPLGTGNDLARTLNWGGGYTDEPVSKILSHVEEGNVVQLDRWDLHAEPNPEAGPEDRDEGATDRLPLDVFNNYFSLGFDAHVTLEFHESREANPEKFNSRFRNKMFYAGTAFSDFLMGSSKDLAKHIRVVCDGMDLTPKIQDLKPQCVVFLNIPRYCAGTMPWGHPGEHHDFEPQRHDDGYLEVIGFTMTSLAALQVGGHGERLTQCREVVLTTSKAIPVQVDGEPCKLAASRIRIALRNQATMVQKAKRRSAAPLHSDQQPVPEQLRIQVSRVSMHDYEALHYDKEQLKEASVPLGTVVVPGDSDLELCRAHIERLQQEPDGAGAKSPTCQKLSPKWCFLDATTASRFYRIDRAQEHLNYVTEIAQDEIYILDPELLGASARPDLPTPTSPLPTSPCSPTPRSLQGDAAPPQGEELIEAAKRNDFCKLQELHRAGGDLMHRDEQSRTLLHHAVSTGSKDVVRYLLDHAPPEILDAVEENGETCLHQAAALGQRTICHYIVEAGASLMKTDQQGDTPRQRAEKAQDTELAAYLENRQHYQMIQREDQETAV
Method in brief: as §1

hDGKalpha(1-735)-N-His, sequence (P23743 whole entry): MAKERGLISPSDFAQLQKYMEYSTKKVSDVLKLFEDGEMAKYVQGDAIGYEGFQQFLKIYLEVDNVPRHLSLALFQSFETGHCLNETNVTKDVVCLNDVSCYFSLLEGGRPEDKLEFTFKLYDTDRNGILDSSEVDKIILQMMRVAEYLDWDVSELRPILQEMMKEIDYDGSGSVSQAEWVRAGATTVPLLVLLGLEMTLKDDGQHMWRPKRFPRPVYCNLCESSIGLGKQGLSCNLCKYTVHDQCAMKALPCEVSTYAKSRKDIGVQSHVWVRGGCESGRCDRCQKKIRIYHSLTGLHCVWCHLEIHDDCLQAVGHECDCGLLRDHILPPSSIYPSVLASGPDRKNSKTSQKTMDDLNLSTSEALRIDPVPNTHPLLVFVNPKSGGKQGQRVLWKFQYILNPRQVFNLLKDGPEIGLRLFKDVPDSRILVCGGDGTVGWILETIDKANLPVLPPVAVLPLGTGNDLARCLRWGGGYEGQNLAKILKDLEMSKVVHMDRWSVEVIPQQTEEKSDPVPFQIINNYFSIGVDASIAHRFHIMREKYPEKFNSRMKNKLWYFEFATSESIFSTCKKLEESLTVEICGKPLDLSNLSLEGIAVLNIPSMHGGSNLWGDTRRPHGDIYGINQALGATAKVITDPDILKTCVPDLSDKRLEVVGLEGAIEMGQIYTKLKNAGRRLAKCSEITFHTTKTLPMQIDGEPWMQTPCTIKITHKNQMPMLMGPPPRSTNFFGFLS

Row | Structure (SMILES) | IC50 (hDGKalpha(1-735)-N-His) | EC50 (primary human T-cells [1]) | Emax (primary human T-cells [2]) | EC50 (primary human T-cells [2]) | Emax (MV-3 cells) | EC50 (MV-3 cells) | IC50 (hDGKzeta(1-928)-N-His)
1 | N[C@H]1CS(=O)(=O)c2ccc(-c3nnc(C4(N)CCCCC4)o3)cc2N(Cc2ccc(OC(F)(F)F)cc2)C1=O [Example 417, (3R)-3-amino-7-[5-(1-aminocyclohexyl)-1,3,4-oxadiazol-2-yl]-1,1-dioxo-5-[[4-(trifluoromethoxy)phenyl]methyl]-2,3-dihydro-1λ^6,5-benzothiazepin-4-one] | 6410 nM | 328 nM | 70% | 337 nM | 182% | 1860 nM | 2110 nM
2 | CC(C)(C)c1nnc(-c2ccc3c(c2)N(Cc2ccc(OC4CCCC4)cc2)C(=O)[C@@H](N)CS3(=O)=O)o1 [Example 430, (3R)-3-amino-7-(5-tert-butyl-1,3,4-oxadiazol-2-yl)-5-[[4-(cyclopentoxy)phenyl]methyl]-1,1-dioxo-2,3-dihydro-1λ^6,5-benzothiazepin-4-one] | 467 nM | 24.2 nM | 110% | 97 nM | 96% | 60 nM | 594 nM
3 | N[C@H]1CS(=O)(=O)c2cc(F)c(-c3nnc(NC4CCC4)o3)cc2N(Cc2ccc(Cl)cc2)C1=O [Example 459, (3R)-3-amino-5-[(4-chlorophenyl)methyl]-7-[5-(cyclobutylamino)-1,3,4-oxadiazol-2-yl]-8-fluoro-1,1-dioxo-2,3-dihydro-1λ^6,5-benzothiazepin-4-one] | 625 nM | 508 nM | 91% | 591 nM | 91% | 330 nM | 632 nM
4 | N[C@H]1CS(=O)(=O)c2cc(F)c(-c3nnc(NC4CCCCC4)o3)cc2N(Cc2ccc(Cl)cc2)C1=O [Example 466, (3R)-3-amino-5-[(4-chlorophenyl)methyl]-7-[5-(cyclohexylamino)-1,3,4-oxadiazol-2-yl]-8-fluoro-1,1-dioxo-2,3-dihydro-λ^6,5-benzothiazepin-4-one] | 2090 nM | 458 nM | 103% | 454 nM | 95% | 240 nM | 1030 nM
